Target: T1, 7002 Rubisco (Picosynechococcus sp. PCC 7002, UniProt Q44176)
T1 construct: gene cbbL; C-terminal His6 tag on large subunit; large and small subunits co-expressed with chaperone RbcX from pET30a in E. coli BL21(DE3); hexadecamer; with Ribulose bisphosphate carboxylase small subunit
Experiment: […]-CABP active-site binding assay
Conditions: labelled compound; active-site titration only

T1 sequence (Q44176 whole entry): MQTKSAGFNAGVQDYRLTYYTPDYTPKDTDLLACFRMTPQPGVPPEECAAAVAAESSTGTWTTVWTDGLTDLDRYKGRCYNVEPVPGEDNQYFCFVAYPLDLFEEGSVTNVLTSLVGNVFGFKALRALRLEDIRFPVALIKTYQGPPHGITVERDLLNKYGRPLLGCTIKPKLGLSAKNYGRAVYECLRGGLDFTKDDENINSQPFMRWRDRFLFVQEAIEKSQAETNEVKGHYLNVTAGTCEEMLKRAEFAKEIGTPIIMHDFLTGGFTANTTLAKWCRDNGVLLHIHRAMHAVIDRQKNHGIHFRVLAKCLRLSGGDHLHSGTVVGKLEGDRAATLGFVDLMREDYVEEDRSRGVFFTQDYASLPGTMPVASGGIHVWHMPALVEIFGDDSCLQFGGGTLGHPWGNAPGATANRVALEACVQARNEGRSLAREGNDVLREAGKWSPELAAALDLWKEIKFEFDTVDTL
T1 sequence (Q44178 whole entry, further chain): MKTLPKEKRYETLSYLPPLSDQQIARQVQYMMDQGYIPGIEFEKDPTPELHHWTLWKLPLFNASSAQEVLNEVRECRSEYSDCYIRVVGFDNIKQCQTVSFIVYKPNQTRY

O=C(O)[C@@](O)(COP(=O)(O)O)[C@H](O)[C@H](O)COP(=O)(O)O [CABP, 2-carboxyarabinitol-1,5-diphosphate]
14C-CABP active-site binding assay: Active sites of Rubisco in purified enzymes were determined as reported

— article PMC10992382, “Discovery of a readily heterologously expressed Rubisco from the deep sea with potential for CO2 capture” (Bioresources and Bioprocessing, 2021)
